In paper PMC4548311 (Journal of Biomolecular Structure & Dynamics, 2014):

Tests used:
[1] = target: monomeric wt NP (nucleoprotein of influenza A virus) (Influenza A virus, UniProt P15682); experiment: biochemical; format: binding
wt NP [2] = target: wt NP (Influenza A virus, UniProt P15682); format: biochemical
wt NP [3] = format: biochemical
influenza A virus = details: mouse, in vivo; cited from earlier work

Sequence of wt NP (Influenza A virus, UniProt P15682) (P15682 whole entry, looked up): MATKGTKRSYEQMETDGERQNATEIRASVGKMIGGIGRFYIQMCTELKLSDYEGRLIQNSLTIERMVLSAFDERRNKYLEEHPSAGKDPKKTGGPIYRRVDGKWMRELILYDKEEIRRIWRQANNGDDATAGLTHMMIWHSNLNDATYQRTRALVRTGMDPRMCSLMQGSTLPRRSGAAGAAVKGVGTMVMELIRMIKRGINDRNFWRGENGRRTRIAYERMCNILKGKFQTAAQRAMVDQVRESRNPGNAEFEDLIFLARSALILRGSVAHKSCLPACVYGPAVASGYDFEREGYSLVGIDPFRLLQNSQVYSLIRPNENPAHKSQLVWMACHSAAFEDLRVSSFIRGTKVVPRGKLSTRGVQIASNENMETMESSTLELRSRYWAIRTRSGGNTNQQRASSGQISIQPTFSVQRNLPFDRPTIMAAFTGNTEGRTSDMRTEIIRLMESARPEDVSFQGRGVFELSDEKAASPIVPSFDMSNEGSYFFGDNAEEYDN
Sequence of monomeric wt NP (nucleoprotein of influenza A virus) (P15682 whole entry, looked up): as above

COc1ccc2cc([C@H](C)C(=O)O)ccc2c1 [Naproxen, naproxen]
% Total inhibition [1]: 70 ± 7%
inhibition at 1 µM ([1]; read-out: % Inhibition at 1 µM): 5%
apparent size of the NP–RNA complex (wt NP [2]): 21–23 nm
effect on NP oligomerization into trimers–tetramers (wt NP [2]): stabilized the monomeric form
effect on RNA-free self-association of NP (wt NP [2]): stabilized monomeric NP and avoided trimers/tetramers formation
effect on dimer formation (wt NP [2]): impeded dimer formation
disruption of already assembled trimers (wt NP [3]): could not disrupt already assembled trimers
antiviral effects in mice (influenza A virus): antiviral effects
lung bleeding (influenza A virus): reduced lung bleeding
